System: RSV strain A2
Experiment: RSV antiviral cytoprotection assay in Hep2 cells (RSV-induced cytopathic effect, Cell TiterGlo)
Format: cell-based, Respiratory Syncytial Virus (RSV)
Conditions: human respiratory syncytial virus, HEp-2, 0.5 μM compound; RSV A2-infected Hep2 cells; % inhibition calculated from 4-parameter dose response curve, normalized to 0% and 100%; read-out: Percent inhibition at 0.5 μM
Method: Antiviral activity against RSV was determined using an in vitro cytoprotection assay in Hep2 cells. […] The method used was similar to methods previously described in published literature (Chapman et al., Antimicrob Agents Chemother. 2007, 51(9):3346-53.)
Hep2 cells were obtained from ATCC (Manassas, VI) and maintained in MEM media supplemented with 10% fetal bovine serum and penicillin/streptomycin. Cells were passaged twice a week and kept at subconfluent stage. Commercial stock of RSV strain A2 (Advanced Biotechnologies, Columbia, Md.) was titered before compound testing to determine the appropriate dilution of the virus stock that generated desirable cytopathic effect in Hep2 cells.
For antiviral tests, Hep2 cells were seeded into 96-well plates 24 hours before the assay at a density of 3,000 cells/well. On a separate 96 well plate, compounds to be tested were serially diluted in cell culture media. Eight concentrations in 3-fold serial dilution increments were prepared for each tested compound and 100 uL/well of each dilution was transferred in duplicate onto plates with seeded Hep2 cells. Subsequently, appropriate dilution of virus stock previously determined by titration was prepared in cell culture media and 100 uL/well was added to test plates containing cells and serially diluted compounds. Each plate included three wells of infected untreated cells and three wells of uninfected cells that served as 0% and 100% virus inhibition control, respectively. Following the infection with RSV, testing plates were incubated for 4 days in a tissue culture incubator. After the incubation, RSV-induced cytopathic effect was determined using a Cell TiterGlo reagent (Promega, Madison, Wis.) followed by a luminescence read-out. The percentage inhibition was calculated for each tested concentration relative to the 0% and 100% inhibition controls and the EC50 value for each compound was determined by non-linear regression as a concentration inhibiting the RSV-induced cytopathic effect by 50%. Ribavirin (purchased from Sigma, St. Louis, Mo.) was used as a positive control for antiviral activity.
Compounds were also tested for antiviral activity against RSV in Hep2 cells using a 384 well format. Compounds were diluted in DMSO using a 10-step serial dilution in 3-fold increments via automation in 4 adjacent replicates each. Eight compounds were tested per dilution plate. 0.4 uL of diluted compounds were then stamped via Biomek into 384-well plates (Nunc 142761 or 164730 w/lid 264616) containing 20 μL of media (Mediatech Inc. MEM supplemented with Glutamine, 10% FBS and Pen/Strep). DMSO and a suitable positive control compound, such as 80 μM GS-329467 or 10 μM 427346 was used for the 100% and 0% cell killing controls, respectively.
Hep2 cells (1.0×10^5 cells/ml) were prepared as above in batch to at least 40 mls excess of the number of sample plates (8 mls cell mix per plate) and infected with vendor supplied (ABI) RSV strain A2 to arrive at an MOI of 1:1000 (virus:cell #) or 1:3000 (vol virus: cell vol). Immediately after addition of virus, the RSV infected Hep2 cell suspension was added to each stamped 384-well plate at 20 μl per well using a uFlow dispenser, giving a final volume of 40 μL/well, each with 2000 infected cells. The plates were then incubated for 5 days at 37° C. and 5% CO2. Following incubation, the plates were equilibrated to room temperature in a biosafety cabinet hood for 1.5 hrs and 40 μL of Cell-Titer Glo viability reagent (Promega) was added to each well via uFlow. Following a10-20 minute incubation, the plates were read using an EnVision or Victor Luminescence plate reader (Perkin-Elmer). The data was then uploaded and analyzed on the Bioinformatics portal under the RSV Cell Infectivity and 8-plate EC50-Hep2-384 or 8-plate EC50-Hep2-Envision protocols. […]

Row | Compound | inhibition at 0.5 µM [%]
1 | Cc1ccc(C(=O)N2CCCC[C@H]2c2cc3nc(N4C[C@@H](C#N)[C@@H](O)C4)c(C)cn3n2)c(C(F)(F)F)c1 [Compound 121] | 92
2 | Cc1cn2nc([C@@H]3CCCCN3C(=O)c3nn(C)c4ccccc34)cc2nc1N1C[C@@H](C#N)[C@@H](O)C1 [Compound 187] | 100
3 | Cc1cc(F)c(F)cc1C(=O)N1CCCC[C@H]1c1cc2nc(N3CC[C@H](N)C3)c(C)cn2n1 [Compound 75] | 100
4 | Cc1cn2nc([C@@H]3CCCCN3C(=O)c3ccc(-n4cncn4)cc3Cl)cc2nc1N1CC[C@H](N)C1 [Compound 102] | 16
5 | COc1ccccc1C(=O)N1CCCC[C@H]1c1cc2nc(N3C[C@@H](C#N)[C@@H](O)C3)c(C)cn2n1 [Compound 113] | 100
6 | Cc1cn2nc([C@@H]3CCCCN3C(=O)c3cccc4c3CCCN4)cc2nc1N1CC[C@H](N)C1 [Compound 60] | 100
7 | COc1ccccc1C(=O)N1CCCC[C@H]1c1cc2nc(N3CC[C@H](N)C3)c(C)cn2n1 [Compound 27] | 100
8 | Cc1ccc(Br)cc1C(=O)N1CCCC[C@H]1c1cc2nc(N3C[C@@H](C#N)[C@@H](O)C3)c(C)cn2n1 [Compound 112] | 100
9 | Cc1cc(F)ccc1C(=O)N1CCCC[C@H]1c1cc2nc(N3CC[C@H](N)C3)c(C)cn2n1 [Compound 77] | 100
10 | Cc1cn2nc([C@@H]3CCCCN3C(=O)c3cc(Cl)ccc3NS(C)(=O)=O)cc2nc1NCC1(N)CC1 [Compound 2] | 100
11 | Cc1cn2nc([C@@H]3CCCCN3C(=O)c3cc(Cl)ccc3NS(C)(=O)=O)cc2nc1N1C[C@H](C)NC[C@H]1C [Compound 24] | 30
12 | Cc1cn2nc([C@@H]3CCCCN3C(=O)c3ccccc3C(F)(F)F)cc2nc1N1C[C@@H](C#N)[C@@H](O)C1 [Compound 184] | 100
13 | Cc1cn2nc([C@@H]3CCCCN3C(=O)c3cc(Cl)ccc3NS(C)(=O)=O)cc2nc1N1CC(C)NC(C)C1 (stereo partly drawn) [Compound 20] | 63
14 | Cc1cn2nc([C@@H]3CCCCN3C(=O)c3[nH]c4c(C)ccc(C)c4c3C)cc2nc1N1C[C@@H](C#N)[C@@H](O)C1 [Compound 134] | 35
15 | Cc1ccc(C(F)(F)F)c(C(=O)N2CCCC[C@H]2c2cc3nc(N4C[C@@H](C#N)[C@@H](O)C4)c(C)cn3n2)c1 [Compound 120] | 100
16 | Cc1ccc(C(=O)N2CCCC[C@H]2c2cc3nc(N4CC[C@H](N)C4)c(C)cn3n2)c(Cl)c1 [Compound 49] | 99
17 | Cc1cn2nc([C@@H]3CCCCN3C(=O)c3ncccc3Br)cc2nc1N1C[C@@H](C#N)[C@@H](O)C1 [Compound 154] | 90
18 | Cc1cn2nc([C@@H]3CCCCN3C(=O)c3cccc(F)c3Cl)cc2nc1N1C[C@@H](C#N)[C@@H](O)C1 [Compound 116] | 100
19 | Cc1cn2nc([C@@H]3CCCCN3C(=O)c3c(Cl)nc4ccccn34)cc2nc1N1C[C@@H](C#N)[C@@H](O)C1 [Compound 136] | 83
20 | Cc1cn2nc([C@@H]3CCCCN3C(=O)c3ccnn3CC(F)(F)F)cc2nc1N1C[C@@H](C#N)[C@@H](O)C1 [Compound 189] | 89
21 | Cc1cn2nc([C@@H]3CCCCN3C(=O)c3cccc4n[nH]cc34)cc2nc1N1C[C@@H](C#N)[C@@H](O)C1 [Compound 175] | 91
22 | Cc1cn2nc([C@@H]3CCCCN3C(=O)c3cc(Cl)ccn3)cc2nc1N1CC[C@H](N)C1 [Compound 83] | 99
23 | Cc1cn2nc([C@@H]3CCCCN3C(=O)c3cc(F)cc4c3OCOC4)cc2nc1N1C[C@@H](C#N)[C@@H](O)C1 [Compound 130] | 100
24 | Cc1cn2nc([C@@H]3CCCCN3C(=O)c3cc(Cl)ccc3NS(C)(=O)=O)cc2nc1NCC1CCCNC1 (stereo partly drawn) [Compound 15] | 82

Row | Compound | inhibition at 0.5 µM [%]
25 | Cc1cn2nc([C@@H]3CCCCN3C(=O)c3cc(F)ccc3OC(F)(F)F)cc2nc1N1C[C@@H](C#N)[C@@H](O)C1 [Compound 122] | 100
26 | Cc1cn2nc([C@@H]3CCCCN3C(=O)c3ccccc3OC3CCCC3)cc2nc1N1CC[C@H](N)C1 [Compound 66] | 95
27 | COc1cc(C)c(C(=O)N2CCCC[C@H]2c2cc3nc(N4CC[C@H](N)C4)c(C)cn3n2)cc1C [Compound 85] | 100
28 | Cc1cn2nc([C@@H]3CCCCN3C(=O)c3cn4ncccc4n3)cc2nc1N1CC[C@H](N)C1 [Compound 101] | 16
29 | Cc1cn2nc([C@@H]3CCCCN3C(=O)c3cc(Cl)ccc3NS(C)(=O)=O)cc2nc1N1C[C@@H](C#N)[C@@H](OC(=O)CCC(=O)O)C1 [Compound 207] | 100
30 | Cc1cn2nc([C@@H]3CCCCN3C(=O)c3c(F)ccc(C)c3F)cc2nc1N1CC[C@H](N)C1 [Compound 39] | 100
31 | Cc1cn2nc([C@@H]3CCCCN3C(=O)c3cccc(F)c3C)cc2nc1N1C[C@@H](C#N)[C@@H](O)C1 [Compound 172] | 100
32 | Cc1cn2nc([C@@H]3CCCCN3C(=O)c3cc(Cl)ccc3NS(C)(=O)=O)cc2nc1N1C[C@@H]2CCN[C@@H]2C1 [Compound 16] | 71
33 | Cc1cn2nc([C@@H]3CCCCN3C(=O)c3cccc(C)c3C)cc2nc1N1C[C@@H](C#N)[C@@H](O)C1 [Compound 169] | 100
34 | Cc1cn2nc([C@@H]3CCCCN3C(=O)c3ncccc3Cl)cc2nc1N1C[C@@H](C#N)[C@@H](O)C1 [Compound 115] | 98
35 | COc1cc2ccccc2cc1C(=O)N1CCCC[C@H]1c1cc2nc(N3C[C@@H](C#N)[C@@H](O)C3)c(C)cn2n1 [Compound 174] | 58
36 | Cc1cn2nc([C@@H]3CCCCN3C(=O)c3cc(Cl)ccc3NS(C)(=O)=O)cc2nc1N1CCN[C@@H](C)C1 [Compound 7] | 100
37 | Cc1ccc(S(N)(=O)=O)cc1C(=O)N1CCCC[C@H]1c1cc2nc(N3CC[C@H](N)C3)c(C)cn2n1 [Compound 59] | 52
38 | COc1ccc(Cl)c(C(=O)N2CCCC[C@H]2c2cc3nc(N4C[C@@H](C#N)[C@@H](O)C4)c(C)cn3n2)c1 [Compound 188] | 100
39 | Cc1ccc(C(=O)N2CCCC[C@H]2c2cc3nc(N4CC[C@H](N)C4)c(C)cn3n2)c(C(F)(F)F)c1 [Compound 36] | 98
40 | COc1ccc2ccccc2c1C(=O)N1CCCC[C@H]1c1cc2nc(N3CC[C@H](N)C3)c(C)cn2n1 [Compound 97] | 100
41 | Cc1cn2nc([C@@H]3CCCCN3C(=O)c3cc(F)c(F)c(Cl)c3F)cc2nc1N1C[C@@H](C#N)[C@@H](O)C1 [Compound 114] | 100
42 | Cc1ccc(C(=O)N2CCCC[C@H]2c2cc3nc(N4C[C@@H](C#N)[C@@H](O)C4)c(C)cn3n2)c(Cl)c1 [Compound 131] | 96
43 | Cc1noc(-c2ccccc2C(=O)N2CCCC[C@H]2c2cc3nc(N4C[C@@H](C#N)[C@@H](O)C4)c(C)cn3n2)n1 [Compound 129] | 87
44 | Cc1cn2nc([C@@H]3CCCCN3C(=O)c3ccccc3Cl)cc2nc1N1CC[C@H](N)C1 [Compound 69] | 100
45 | Cc1ccc(S(C)(=O)=O)cc1C(=O)N1CCCC[C@H]1c1cc2nc(N3CC[C@H](N)C3)c(C)cn2n1 [Compound 58] | 61
46 | Cc1cn2nc([C@@H]3CCCCN3C(=O)c3c(Cl)cnn3C(C)C)cc2nc1N1C[C@@H](C#N)[C@@H](O)C1 [Compound 190] | 100
47 | Cc1cn2nc([C@@H]3CCCCN3C(=O)c3cc(Cl)ccc3NS(C)(=O)=O)cc2nc1N1CCN[C@@H](COCc2ccccc2)C1 [Compound 13] | 82
48 | Cc1cn2nc([C@@H]3CCCCN3C(=O)c3cc(Cl)ccc3NS(C)(=O)=O)cc2nc1N1C[C@H](N)C[C@@H]1C(=O)O [Compound 14] | 81

Reference: patent publication US8946238B2, “Pyrazolo[1,5-A]pyrimidines as antiviral agents” (Gilead Sciences, Inc., priority 2011, dated 2015)
